Source: patent publication US20220193025A1, “USE OF DIANHYDROHEXITOL TO ELIMINATE THE COSMETIC EFFECTS OF ACNE, DANDRUFF AND BAD ODORS” (ROQUETTE FRERES, priority 2019, published 2022)

System: Malassezia furfur strain
Assay: Example 2: microbial population count over 28 days after contamination (microtiter method, TTC)
Type: cell-based
Conditions: for Number of colony forming strains after: 24 h / Number of colony forming strains after: 7 days / Number of colony forming strains after: 14 days / Number of colony forming strains after: 21 days / Number of colony forming strains after: 28 days: 22° C.
Experimental: The samples are prepared under sterile conditions and deposited in microplates (2-ml wells) with the concentrations hereunder. Two analysis controls were produced: a positive control corresponding to 0.5% Phenonip®; a negative control consisting of 0.85% physiological saline solution. Samples and controls are contaminated by a Malassezia furfur fungal strain with around 1.50×10^4 to 3.80×10^4 colony forming units per milliliter, denoted cfu/ml. After contamination, the samples are carefully mixed by suction-discharge cycles in order to ensure a uniform distribution of the microorganism. The whole is incubated at 22° C. during 28 days. The microbial population is sampled and counted at 24 hours, 7, 14, 21 and 28 days for the bacterial strain. The contaminated samples are collected and then deposited in serial dilutions in microtiter plates, in the presence of culture medium, which is a saline solution with 0.85% sodium chloride, and a dehydrogenase activity indicator reagent, which is 2,3,5-triphenyltetrazolium chloride (denoted TTC). The results are presented in the following pages with the variation of the microbial population over the 28 days of study, for the tested microbial strain. The measurements of microbial populations in the samples collected at each time, are carried out according to the following microtiter method, for one sample collection. In the 96 wells with a volume of 250 μL of a microtiter plate, 20 μL of the collected sample are diluted by a factor of 10 by dispersion in 180 μL of Letheen broth (Difco, ref. 268110) containing 1.5% of Tween 80 (Sigma, ref. […]) and TTC (Sigma, ref. […]). The microplate is incubated for 48 hours at 32.5° C., and the growth of the microorganisms is monitored by the color change, from colorless to red/pink. The highest reciprocal dilution indicating a growth makes it possible to determine the log number of each microorganism at each time. The measurements of microbial populations taken at each collection time are expressed as colony forming units/ml.

O[C@@H]1CO[C@H]2[C@@H]1OC[C@@H]2O [isosorbide, 1,4-3,6-dianhydrosorbitol]
effect on the strain (conclusion in words): bactericide | colony forming strain observed (after 24 hours): no colony forming strain is observed | Number of colony forming strains after: 24 h (dose of isosorbide 1%): 0 colony forming units/ml | Number of colony forming strains after: 7 days (dose of isosorbide 1%): 0 colony forming units/ml | Number of colony forming strains after: 14 days (dose of isosorbide 1%): 0 colony forming units/ml | Number of colony forming strains after: 21 days (dose of isosorbide 1%): 0 colony forming units/ml | Number of colony forming strains after: 28 days (dose of isosorbide 1%): 0 colony forming units/ml | Number of colony forming strains after: 24 h (dose of isosorbide 5%): 0 colony forming units/ml | Number of colony forming strains after: 7 days (dose of isosorbide 5%): 0 colony forming units/ml | Number of colony forming strains after: 14 days (dose of isosorbide 5%): 0 colony forming units/ml | Number of colony forming strains after: 21 days (dose of isosorbide 5%): 0 colony forming units/ml | Number of colony forming strains after: 28 days (dose of isosorbide 5%): 0 colony forming units/ml | Number of colony forming strains after: 24 h (dose of isosorbide 9%): 0 colony forming units/ml | Number of colony forming strains after: 7 days (dose of isosorbide 9%): 0 colony forming units/ml | Number of colony forming strains after: 14 days (dose of isosorbide 9%): 0 colony forming units/ml | Number of colony forming strains after: 21 days (dose of isosorbide 9%): 0 colony forming units/ml | Number of colony forming strains after: 28 days (dose of isosorbide 9%): 0 colony forming units/ml
